Experimental data published in patent US11426397B2, “Piperidinyl- and piperazinyl-substituted heteroaromatic carboxamides as modulators of GPR6” (TAKEDA PHARMACEUTICAL COMPANY LIMITED, priority 2017, dated 2022).

Molecular target: T1, GPR6 receptor expressed in CHO-K1 cells (Homo sapiens, UniProt P46095)
T1 construct: expressed in transfected cells
Assay: In vitro inhibition of cAMP (EC50), cell-based HTRF cAMP assay
Settings: inhibition of constitutive cAMP activity of GPR6 in CHO-K1 cells
Protocol: I. In Vitro Inhibition of cAMP (EC50)
This cell based assay measures the ability of test compounds to inhibit the constitutive cAMP activity of GPR6 receptor expressed in CHO-K1 cells. CHO cells are stably expressed with GPR6 receptor, whose expression is controlled by a tetracycline inducible element. The cells were cultured in medium containing F12K, 10% FBS, 1% Penn/Strep, 200 μg/mL Hygromycin. GPR6 receptor expression is induced for 20 hours with 2 μg/mL doxycycline (Sigma D9891) in growth media. After addition of doxycycline, the cells are plated at a density of 450-750 cells per well in 96-well half-volume black tissue culture plates (Costar) and placed in an incubator (37° C., 5% CO2) for 20 hours prior to cAMP assays.
Culture media is removed from the cells and they are washed with 50 μL/well of Ringer's Buffer (MgCl2 0.047 mg/mL, NaH2PO4 0.18 mg/mL, Na2HPO4 0.1 mg/mL, KCl 0.34 mg/mL, NaHCO3 1.26 mg/mL, D-glucose 1.8 mg/mL, NaCl 7 mg/mL; pH=7.4). The test compounds are suspended in DMSO, diluted in Ringer's Buffer containing 0.5% fatty acid free BSA plus 300 μM IBMX, and incubated on the cells for 45 minutes at 37° C. and 5% CO2. After incubation, the cells are conditioned for 10 minutes at room temp with Eu-cAMP tracer solution from a Perkin Elmer Lance HTRF Ultra cAMP assay kit (TRF0263). Then ULight™-anti-cAMP solution from the Lance HTRF kit is added and incubated on a shaker at room temp for 1 hour prior to HTRF detection in a Perkin Elmer Envision plate reader. EC50 curves are generated with a four-parameter logistic equation using GraphPad Prism 5.03.
Table 1 lists biological assay data (in vitro inhibition of cAMP) for some of the compounds shown in the examples, where larger pEC50 values represent higher activity or potency. All of the compounds shown in Table 1 were tested in accordance with a cell-based assay which measures the ability of test compounds to inhibit the constitutive cAMP activity of GPR6 receptor expressed in CHO-K1 cells (reported as pEC50). The assay is described in the specification under the heading “In vitro inhibition of cAMP (EC50).”

T1 sequence (P46095 whole entry): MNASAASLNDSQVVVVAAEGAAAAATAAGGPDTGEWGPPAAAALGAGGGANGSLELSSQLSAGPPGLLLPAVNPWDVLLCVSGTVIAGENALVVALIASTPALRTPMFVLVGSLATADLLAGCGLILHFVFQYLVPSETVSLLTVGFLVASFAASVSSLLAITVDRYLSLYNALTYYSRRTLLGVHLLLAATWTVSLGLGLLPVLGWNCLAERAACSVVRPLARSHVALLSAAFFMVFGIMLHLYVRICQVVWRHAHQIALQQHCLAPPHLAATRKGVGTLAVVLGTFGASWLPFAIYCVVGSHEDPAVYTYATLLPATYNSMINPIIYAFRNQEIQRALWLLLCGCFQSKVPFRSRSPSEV

SMILES | pEC50, in vitro inhibition of cAMP
Cc1nc(C(=O)Nc2cc(C#N)ccc2N2CCC(Oc3ccc(F)cc3F)CC2)co1 [Example 43, N-(5-cyano-2-(4-(2,4-difluorophenoxy)piperidin-1-yl)phenyl)-2-methyloxazole-4-carboxamide] | 6.1
Cn1cccc(C(=O)Nc2cc(C#N)ccc2N2CCC(Oc3cc(F)ccc3F)CC2)c1=O [Example 15, N-(5-cyano-2-(4-(2,5-difluorophenoxy)piperidin-1-yl)phenyl)-1-methyl-2-oxo-1,2-dihydropyridine-3-carboxamide] | 7.1
Cc1ccc(F)c(C(=O)Nc2cc(C#N)cnc2N2CCC(Oc3ccc(F)cc3F)CC2)n1 [Example 57, N-(5-cyano-2-(4-(2,4-difluorophenoxy)piperidin-1-yl)pyridin-3-yl)-3-fluoro-6-methylpicolinamide] | 7.3
Cn1cccc(C(=O)Nc2cc(C#N)ccc2N2CCC([C@@H](F)c3ccc(F)cc3F)CC2)c1=O [Example 85, (R)—N-(5-cyano-2-(4-((2,4-difluorophenyl)fluoromethyl)piperidin-1-yl)phenyl)-1-methyl-2-oxo-1,2-dihydropyridine-3-carboxamide] | 7.2
COc1ccncc1C(=O)Nc1cc(C)cnc1N1CCC(Oc2ccc(F)cc2F)CC1 [Example 35, N-(2-(4-(2,4-difluorophenoxy)piperidin-1-yl)-5-methylpyridin-3-yl)-4-methoxynicotinamide] | 7.4
COc1ccncc1C(=O)Nc1ccc(C)nc1N1CCC(Oc2ccc(F)cc2F)CC1 [Example 62, N-(2-(4-(2,4-difluorophenoxy)piperidin-1-yl)-6-methylpyridin-3-yl)-4-methoxynicotinamide] | 7.3
COc1nn(C)cc1C(=O)Nc1cc(C)cnc1N1CCN(Cc2ccc(C#N)c(F)c2)CC1 [Example 102, N-(2-(4-(4-cyano-3-fluorobenzyl)piperazin-1-yl)-5-methylpyridin-3-yl)-3-methoxy-1-methyl-1H-pyrazole-4-carboxamide] | 6.1
COc1nn(C)cc1C(=O)Nc1cc(C#N)ccc1N1CCC(S(=O)(=O)c2cccc(F)c2)CC1 [Example 97, N-(5-cyano-2-(4-((3-fluorphenyl)sulfonyl)piperidin-1-yl)phenyl)-3-methoxy-1-methyl-1H-pyrazole-4-carboxamide] | 6.4
Cn1cccc(C(=O)Nc2cc(C#N)ccc2N2CCC(Oc3ccc(F)cc3)CC2)c1=O [Example 4, N-(5-cyano-2-(4-(4-fluorophenoxy)piperidin-1-yl)phenyl)-1-methyl-2-oxo-1,2-dihydropyridine-3-carboxamide] | 6.7
COc1ncccc1C(=O)Nc1cc(C#N)cnc1N1CCN(Cc2ccc(F)cc2)CC1 [Example 75, N-(5-cyano-2-(4-(4-fluorobenzyl)piperazin-1-yl)pyridin-3-yl)-2-methoxynicotinamide] | 7.3
COc1ncccc1C(=O)Nc1cnc(C)cc1N1CCC(Oc2ccc(C#N)cc2F)CC1 [Example 40, N-(4-(4-(4-cyano-2-fluorophenoxy)piperidin-1-yl)-6-methylpyridin-3-yl)-2-methoxynicotinamide] | 6.2
COc1ccsc1C(=O)Nc1cc(C#N)ccc1N1CCC(Oc2ccc(F)cc2F)CC1 [Example 46, N-(5-cyano-2-(4-(2,4-difluorophenoxy)piperidin-1-yl)phenyl)-3-methoxythiophene-2-carboxamide] | 7.2

More lines, now with the values ahead:

pEC50, in vitro inhibition of cAMP | SMILES
6.0 | COc1ncccc1C(=O)Nc1cc(C#N)ccc1N1CCN(C(C)c2ccc(F)cc2)CC1 (stereo not drawn) [Example 288]
7.1 | COc1ccncc1C(=O)Nc1cnc(C)cc1N1CCC(Oc2ccc(F)cc2F)CC1 [Example 263]
6.3 | COc1ccc(F)c(F)c1C(=O)Nc1cc(C#N)ccc1N1CCC(Oc2ccc(F)cc2F)CC1 [Example 192, N-(5-cyano-2-(4-(2,4-difluorophenoxy)piperidin-1-yl)phenyl)-2,3-difluoro-6-methoxybenzamide]
6.5 | Cc1cc(C)n(C)c(=O)c1C(=O)Nc1cc(C#N)ccc1N1CCC(Oc2ccc(F)cc2F)CC1 [Example 176, N-(5-cyano-2-(4-(2,4-difluorophenoxy)piperidin-1-yl)phenyl)-1,4,6-trimethyl-2-oxo-1,2-dihydropyridine-3-carboxamide]
6.7 | COc1nn(C)cc1C(=O)Nc1cc(C#N)cnc1N1CCN(Cc2cccc(OC(F)(F)F)c2)CC1 [Example 165, N-(5-cyano-2-(4-(3-(trifluoromethoxy)benzyl)piperazin-1-yl)pyridin-3-yl)-3-methoxy-1-methyl-1H-pyrazole-4-carboxamide]
6.8 | COc1nc(C(F)(F)F)ccc1C(=O)Nc1cc(C#N)ccc1N1CCC(Oc2ccc(F)cc2F)CC1 [Example 213]
6.4 | CCc1cc(C(=O)Nc2cc(C#N)ccc2N2CCC(Oc3ccc(F)cc3F)CC2)no1 [Example 118, N-(5-cyano-2-(4-(2,4-difluorophenoxy)piperidin-1-yl)phenyl)-5-ethylisoxazole-3-carboxamide]
6.5 | COc1cc(F)c(F)cc1CN1CCN(c2ncc(C#N)cc2NC(=O)c2cn(C)nc2OC)CC1 [Example 170, N-(5-cyano-2-(4-(4,5-difluoro-2-methoxybenzyl)piperazin-1-yl)pyridin-3-yl)-3-methoxy-1-methyl-1H-pyrazole-4-carboxamide]
6.6 | N#Cc1ccc(N2CCC(Oc3ccc(F)cc3F)CC2)c(NC(=O)c2cc3n(n2)CCC3)c1 [Example 107, N-(5-cyano-2-(4-(2,4-difluorophenoxy)piperidin-1-yl)phenyl)-5,6-dihydro-4H-pyrrolo[1,2-b]pyrazole-2-carboxamide]
6.8 | Cc1ccc2ncc(C(=O)Nc3cc(C#N)ccc3N3CCC(Oc4ccc(F)cc4F)CC3)c(=O)n2c1 [Example 201]
4.9 | O=C(Nc1ccccc1N1CCN(C(=O)c2ccc(Cl)cc2)CC1)c1ncccn1 [Example 258, N-(2-(4-(4-chlorobenzoyl)piperazin-1-yl)phenyl)pyrimidine-2-carboxamide]
6.1 | COc1ccc(C(C)(C)C)cc1C(=O)Nc1cc(C#N)ccc1N1CCC(Oc2ccc(F)cc2F)CC1 [Example 209, 5-(tert-butyl)-N-(5-cyano-2-(4-(2,4-difluorophenoxy)piperidin-1-yl)phenyl)-2-methoxybenzamide]
6.7 | N#Cc1ccc(N2CCC(Oc3ccc(F)cc3F)CC2)c(NC(=O)c2cc(C3CC3)on2)c1 [Example 125, N-(5-cyano-2-(4-(2,4-difluorophenoxy)piperidin-1-yl)phenyl)-5-cyclopropylisoxazole-3-carboxamide]
6.4 | Cn1c2c(cc(C(=O)Nc3cc(C#N)ccc3N3CCC(Oc4ccc(F)cc4F)CC3)c1=O)CCCC2 [Example 185]
7.1 | COc1ncccc1C(=O)Nc1cc(C#N)ccc1N1CCN(Cc2ccc(F)c(F)c2)CC1 [Example 246, N-(5-cyano-2-(4-(3,4-difluorobenzyl)piperazin-1-yl)phenyl)-2-methoxynicotinamide]
